Here are results for 9 compounds from US20150315188A1, “COMPOUNDS AND METHODS FOR TREATMENT OF HYPERTENSION” (MEDIVATION TECHNOLOGIES, INC., priority 2012, published 2015).

In assay [1] the target is T1, Human adrenergic α2A receptor (Homo sapiens, UniProt P08913).
T1 sequence (P08913 1-465): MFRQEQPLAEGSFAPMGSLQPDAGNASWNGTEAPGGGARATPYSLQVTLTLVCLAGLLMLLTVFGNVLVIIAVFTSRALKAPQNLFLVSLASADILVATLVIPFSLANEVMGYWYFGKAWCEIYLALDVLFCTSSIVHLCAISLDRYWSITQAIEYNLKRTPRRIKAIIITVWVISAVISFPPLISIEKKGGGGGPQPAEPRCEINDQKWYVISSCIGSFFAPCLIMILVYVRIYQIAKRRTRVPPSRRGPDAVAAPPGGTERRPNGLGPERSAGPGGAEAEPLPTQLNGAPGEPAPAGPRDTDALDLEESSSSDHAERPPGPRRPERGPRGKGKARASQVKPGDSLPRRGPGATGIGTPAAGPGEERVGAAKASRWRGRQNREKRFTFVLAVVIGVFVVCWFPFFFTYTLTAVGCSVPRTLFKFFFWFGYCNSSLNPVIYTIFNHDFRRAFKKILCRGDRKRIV
As to the kind of experiment: Radioligand binding, adrenergic α2A (Protocol Group B). Set-up: purchased Milipore (Millipore). Particulars: for Percentage inhibition of ligand binding, Adrenergic α2A (0.3 μM) / inhibition at 0.3 µM: 0.3 μM compound; for Ki: estimated Ki; for inhibition at 0.3 µM: read-out: Percentage inhibition of ligand binding, Adrenergic α2A (0.3 μM). Put shortly:
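Membranes from recombinant cells expressing the receptor, in 50 mM Tris-HCl pH 7.4 with 5 mM MgCl2, 1 mM CaCl2, 0.2% BSA; compounds incubated with 2 nM [^3H]MK-912 for 60 min at 25° C. Nonspecific binding defined by 10 μM rauwolscine; filtration, counting; percent inhibition of specific binding, or estimated Ki.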

In assay [2] the target is T1, Human adrenergic α2A receptor. As to the kind of experiment: β-Arrestin GPCR functional assay, adrenergic α2A (Protocol B). It is filed as cell-based. Particulars: for IC50: β-arrestin, antagonist vs nor-epinephrine EC80. Put shortly:
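PathHunter CHO cells overexpressing human α2A receptor were preincubated with compounds (1% DMSO final) for 30 min at 37 °C, then stimulated 90 min with norepinephrine at EC80 (270 nM). β-Arrestin recruitment read by chemiluminescence after 60 min detection; reported as % inhibition or IC50.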

[3] abbreviates: 0.1 μM compound, Protocol Group B.

For orientation: Ki means a measure of affinity in units of concentration, obtained from inhibition or displacement. As usually defined, the IC50 is the point on the concentration scale where inhibition reaches its midpoint. Lower therefore signals higher potency. For orientation: inhibition means the relative decrease from the control value, in per cent.

As to `Cc1cc(Cl)c2c(c1)c1c(n2CC(C)(O)c2ccncc2)CCN2CCCC12` (single isomer, unassigned) [91b], the “Percentage inhibition of ligand binding, Adrenergic α2A (0.1 μM)” value (“Percentage inhibition … (0.1 μM)” below) in assay [1] (setting [3]) turned out to be 67%. In assay [1] (Protocol Group B), the “Percentage inhibition of ligand binding, Adrenergic α2A (0.3 μM)” value (“Percentage inhibition … (0.3 μM)” below) is recorded as 86% and the inhibition constant Ki was 28.4 nM. This compound yielded an IC50 in assay [2] of 1780 nM.
In the case of `Cc1cc(C)c2c(c1)c1c(n2CC(C)(O)c2ccncc2)CCN2CCCC12` (single isomer, unassigned) [19b], the “Percentage inhibition of ligand binding, Adrenergic α2A, 3.2 nM” value in assay [1] (3.2 nM compound, concentration series, 0.0032 µM) worked out at 12%. The “Percentage inhibition of ligand binding, Adrenergic α2A, 10 nM” value in assay [1] (10 nM compound, concentration series, 0.01 µM) came out at 4%. Also, the “Percentage inhibition of ligand binding, Adrenergic α2A, 0.032 μM” value in assay [1] (0.032 μM compound, concentration series, 0.032 µM) worked out at 27%. Also, the “Percentage inhibition … (0.1 μM)” value in assay [1] (setting [3]) is listed as 51%. The “Percentage inhibition … (0.3 μM)” value in assay [1] (Protocol Group B) was 77%. Further, the “Percentage inhibition of ligand binding, Adrenergic α2A, 0.32 μM” value in assay [1] (0.32 μM compound, concentration series, 0.32 µM) came to 67%. In addition, in assay [1] (1 μM compound, concentration series, 1 µM), the “Percentage inhibition of ligand binding, Adrenergic α2A, 1 μM” value was found to be 84%. The “Percentage inhibition of ligand binding, Adrenergic α2A, 3.2 μM” value in assay [1] (3.2 μM compound, concentration series, 3.2 µM) was 95%. Besides, the inhibition at 10 µM in assay [1] (10 μM compound, concentration series, read-out: Percentage inhibition of ligand binding, Adrenergic α2A, 10 μM) was 100%. In addition, the Ki in assay [1] (Protocol Group B) was 36 nM. Further, the “Percentage inhibition, Adrenergic α2A” value in assay [2] (0.1 μM compound, nor-epinephrine at EC80 (270 nM)) was determined as 24%; in assay [2] (0.3 μM compound, nor-epinephrine at EC80 (270 nM)), 20%. For the same compound, half-maximal inhibition in assay [2] (IC50) was put at 5010 nM.
Regarding `Cc1ccc2c(c1)c1c(n2CC(OC2CCCC2)c2ccncc2)CCN(C)C1` (single isomer, unassigned) [35a], the “Percentage inhibition … (0.1 μM)” value in assay [1] (setting [3]) amounted to 67%. In addition, in assay [1] (Protocol Group B), the “Percentage inhibition … (0.3 μM)” value is 86% and the Ki is 28.5 nM. The same compound had an IC50 in assay [2] of 2390 nM.
As to `Cc1cc(F)cc2c3c(n(CC(C)(O)c4cccnc4)c12)CCN1CCCC31` (single isomer, unassigned) [75a], in assay [1] (setting [3]), the “Percentage inhibition … (0.1 μM)” value turned out to be 3%. For the same compound, in assay [1] (Protocol Group B), the “Percentage inhibition … (0.3 μM)” value was determined as 22%. In assay [2], this compound came in with an IC50 of 2080 nM.
For the compound `Cc1cc(F)c2c(c1)c1c(n2CC(O)c2ccncc2)CCN2CCCC12` (single isomer, unassigned) [137b], the “Percentage inhibition … (0.1 μM)” value in assay [1] (setting [3]) worked out at 94%. Also, in assay [1] (Protocol Group B), the “Percentage inhibition … (0.3 μM)” value was found to be 102% and the inhibition constant Ki is 2.4 nM. The compound further displayed an IC50 in assay [2] of 185 nM.
For `OC(Cn1c2c(c3cc(Cl)cc(F)c31)C1CCCN1CC2)c1ccncc1` (single isomer, unassigned) [135a], the “Percentage inhibition … (0.1 μM)” value in assay [1] (setting [3]) is given as 57%. Moreover, in assay [1] (Protocol Group B), the inhibition at 0.3 µM was 77% and the inhibitory constant (Ki) is 66.1 nM. The compound further registered an IC50 in assay [2] of 4350 nM.
On to `Cc1ccc2c(c1)c1c(n2CC(C)(O)c2ccncc2)CCN2CCCC12` (single isomer, unassigned) [13a], for which the inhibitory constant (Ki) in assay [1] (Protocol Group B) was 50 nM. Further, in assay [2] (0.1 μM compound, nor-epinephrine at EC80 (270 nM), read-out: Percentage inhibition, Adrenergic α2A), the inhibition at 0.1 µM turned out to be 14%. Further, the inhibition at 0.3 µM in assay [2] (0.3 μM compound, nor-epinephrine at EC80 (270 nM), read-out: Percentage inhibition, Adrenergic α2A) was 21%. The compound also had an IC50 in assay [2] of 2240 nM.
As to `Cc1cc(F)c2c(c1)c1c(n2CC(C)(O)c2cccnc2)CCN2CCCC12` (centres unmarked) [Compound No. 79a], the “Percentage inhibition … (0.1 μM)” value in assay [1] (setting [3]) is on record as 81%. Also, in assay [1] (Protocol Group B), the “Percentage inhibition … (0.3 μM)” value amounted to 93% and the Ki was 10.6 nM. In assay [2], this compound came in with an IC50 of 678 nM.
Regarding `Cc1ccc2c(c1)c1c(n2CC(C)(O)c2ccnc(F)c2)CCN2CCCC12` (single isomer, unassigned) [48a], the inhibition at 0.1 µM in assay [1] (0.1 μM compound, Protocol Group B, read-out: Percentage inhibition of ligand binding, Adrenergic α2A (0.1 μM)) is 73%. For the same compound, in assay [1] (Protocol Group B), the inhibition at 0.3 µM came out at 82% and the inhibition constant Ki was 31.1 nM. Further, the half-inhibitory concentration (IC50) in assay [2] came to 1110 nM.
